Legend:
NnOMT1 = target: T1, NnOMT1 (Nelumbo nucifera, UniProt A0A3G1RSF0); assay: substrate conversion by LC-MS/MS; format: biochemical; conditions: 100 µM substrate, 200 µM SAM, pH 7.5, 30 °C; 6-O-methylation
T1 construct: gene 6OMT

NnOMT7 = assay: LC-MS/MS product quantification, Michaelis-Menten fit; format: biochemical, Nelumbo nucifera; conditions: 400 µM SAM, 100 mM Tris-HCl pH 7.5, 30 °C, 5 min

T1 sequence (A0A3G1RSF0 entry or part of it): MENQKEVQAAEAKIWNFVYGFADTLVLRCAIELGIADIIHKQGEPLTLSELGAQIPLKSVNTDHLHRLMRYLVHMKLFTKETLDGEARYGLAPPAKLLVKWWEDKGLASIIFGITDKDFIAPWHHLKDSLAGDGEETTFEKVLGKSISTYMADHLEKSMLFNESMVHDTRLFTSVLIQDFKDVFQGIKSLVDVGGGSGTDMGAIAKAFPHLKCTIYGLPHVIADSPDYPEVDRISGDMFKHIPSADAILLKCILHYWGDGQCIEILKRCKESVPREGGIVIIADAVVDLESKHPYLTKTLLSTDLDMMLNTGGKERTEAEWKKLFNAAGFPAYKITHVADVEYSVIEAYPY

SMILES | substrate conversion by LC-MS/MS (NnOMT1) | Km (NnOMT7; 6-O-methylation) [µM] | Km (NnOMT7; 7-O-methylation) [µM]
Oc1ccc(CC2NCCc3cc(O)c(O)cc32)cc1 (racemic) [(R,S)-norcoclaurine] | NnOMT1 activity with racemic norcoclaurine was higher compared with (S)-norcoclaurine | 143 ± 30 | –
COc1cc2c(cc1O)[C@H](Cc1ccc(O)cc1)N(C)CC2 [(S)-N-methylcoclaurine] | – | – | 48 ± 4
Oc1ccc(C[C@@H]2NCCc3cc(O)c(O)cc32)cc1 [(S)-norcoclaurine] | NnOMT1 activity with racemic norcoclaurine was higher compared with (S)-norcoclaurine | – | –

Reference: publication PMC9940101, “Elucidation of the (R)-enantiospecific benzylisoquinoline alkaloid biosynthetic pathways in sacred lotus (Nelumbo nucifera)” (Scientific Reports, 2023)
